From PMC4058522, “Structural Basis for Phosphorylation-Dependent Recruitment of Tel2 to Hsp90 by Pih1” (Structure(London, England:1993), 2014)
“And” between values parts separate entries of the source, which are not always exact repeats. Equal entries are not always repeated. Each block holds one molecule with its values, some of them ahead of it. Square brackets hold non-standard residues; d marks the D form. Peptide text beside a SMILES is read from it. pS = N[C@@H](COP(=O)(O)O)C(=O)O

Experiments:
mouse Pih1-PIH domain = biological target: T1, mouse Pih1-PIH domain (Mus musculus, UniProt Q9CQJ2); assay: ITC, phosphopeptide binding to Pih1 PIH domain; conditions: 30°C; for Kd: 20 mM Tris pH 7.5, 5 mM NaCl, peptides at 350 μM injected into 30 μM Pih1
T1 construct: We determined the crystal structure of the mouse PIH domain^1–200; His (N); made in house
Description: (§1) Heat of interaction was measured on an ITC200 microcalorimeter (Microcal) under the same buffer conditions (20 mM Tris, pH 7.5, containing 5 mM NaCl). Aliquots of the Tel2 peptides at 350 μM were injected into 30 μM of Pih1 at 30°C. Interactions with Tah1 or Spagh/RPAP3^120–395 were performed in 10 mM Tris pH 7.5 and 5 mM NaCl at 10°C and 30°C. Aliquots of 600 μM Tah1 were injected into 40 μM of yeast Hsp90, 400 μM of SRMEEVD injected into 30 μM Tah1, 301 μM yeast Hsp90 injected into 25 μM yeast Tah1-Pih1 complex, and 400 μM SRMEEVD injected into 30 μM yeast Tah1-Pih1 complex. For Spagh/RPAP3^120–395 experiments, aliquots of 500 μM yeast Hsp90 were injected into 20 μM Spagh/RPAP3^120–395 or 2 mM […] into 80 μM Spagh/RPAP3^120–395 or mutants (N172E, N321E, and N172E-N321E). Heats of dilution were determined by diluting injectant into buffer. Data were fitted using a curve-fitting algorithm (Microcal Origin). ATPase assays were previously described ([Prodromou et al., 1999]).

yeast Hsp90 = assay: ITC, binding of Tah1 or Tah1-Pih1 complex to Hsp90 dimer; conditions: for Kd: 10 mM Tris pH 7.5, 5 mM NaCl, 600 μM Tah1 into 40 μM yeast Hsp90, or 301 μM yeast Hsp90 into 25 μM yeast Tah1-Pih1 complex; for N (sites) / ΔH / ΔS: same titrations as KD
Description: as §1

T1 sequence (Q9CQJ2 1-200): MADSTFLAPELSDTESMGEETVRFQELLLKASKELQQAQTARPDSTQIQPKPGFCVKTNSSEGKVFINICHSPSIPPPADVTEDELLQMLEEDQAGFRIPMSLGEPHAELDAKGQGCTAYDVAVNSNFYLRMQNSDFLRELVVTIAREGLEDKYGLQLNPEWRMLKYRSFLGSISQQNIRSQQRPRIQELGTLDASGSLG

Kd (mouse Pih1-PIH domain): 115 µM and > 100 µM
Molecule: CC(C)C[C@H](NC(=O)[C@H](CCC(=O)O)NC(=O)[C@H](CO)NC(=O)[C@H](CC(=O)O)NC(=O)[C@H](COP(=O)(O)O)NC(=O)CNC(=O)[C@@H](N)CCC(N)=O)C(=O)N[C@@H](CC(=O)O)C(=O)N[C@@H](CO)C(=O)N[C@@H](CC(=O)O)C(=O)N[C@@H](CC(=O)O)C(=O)N[C@@H](CCC(=O)O)C(=O)N[C@@H](Cc1ccccc1)C(=O)O [pS486-Tel2]

Kd (mouse Pih1-PIH domain): 37.9 µM
Molecule: CC(C)C[C@H](NC(=O)[C@H](CCC(=O)O)NC(=O)[C@H](COP(=O)(O)O)NC(=O)[C@H](CC(=O)O)NC(=O)[C@H](COP(=O)(O)O)NC(=O)CNC(=O)[C@@H](N)CCC(N)=O)C(=O)N[C@@H](CC(=O)O)C(=O)N[C@@H](CO)C(=O)N[C@@H](CC(=O)O)C(=O)N[C@@H](CC(=O)O)C(=O)N[C@@H](CCC(=O)O)C(=O)N[C@@H](Cc1ccccc1)C(=O)O [pS486, pS488-Tel2]

ΔH (mouse Pih1-PIH domain): -7.313 ± 0.3547 kcal/mol | ΔS (mouse Pih1-PIH domain): -0.36 cal/mol/deg | N (mouse Pih1-PIH domain; fitted): 0.76 ± 0.03 sites
Molecule: CC[C@H](C)[C@H](NC(=O)[C@H](CO)NC(=O)[C@H](CC(=O)O)NC(=O)[C@H](CC(=O)O)NC(=O)[C@H](COP(=O)(O)O)NC(=O)[C@H](CC(=O)O)NC(=O)[C@H](CC(N)=O)NC(=O)[C@H](C)NC(=O)[C@@H](N)CCSC)C(=O)O [Mre11 phosphoserine peptide] (H-MAND[pS]DDSI-OH; N-terminus and C-terminus assumed)

Kd (mouse Pih1-PIH domain): 15.3 µM
Molecule: CC(C)C[C@H](NC(=O)[C@H](CCC(=O)O)NC(=O)[C@H](COP(=O)(O)O)NC(=O)[C@H](CC(=O)O)NC(=O)[C@H](CO)NC(=O)CNC(=O)[C@@H](N)CCC(N)=O)C(=O)N[C@@H](CC(=O)O)C(=O)N[C@@H](CO)C(=O)N[C@@H](CC(=O)O)C(=O)N[C@@H](CC(=O)O)C(=O)N[C@@H](CCC(=O)O)C(=O)N[C@@H](Cc1ccccc1)C(=O)O [pS488-Tel2]

Kd (mouse Pih1-PIH domain): 0.39 µM
Molecule: CC(C)C[C@H](NC(=O)[C@H](CCC(=O)O)NC(=O)[C@H](CO)NC(=O)[C@H](CC(=O)O)NC(=O)[C@H](CO)NC(=O)CNC(=O)[C@@H](N)CCC(N)=O)C(=O)N[C@@H](CC(=O)O)C(=O)N[C@@H](COP(=O)(O)O)C(=O)N[C@@H](CC(=O)O)C(=O)N[C@@H](CC(=O)O)C(=O)N[C@@H](CCC(=O)O)C(=O)N[C@@H](Cc1ccccc1)C(=O)O [pS492-Tel2]

Kd (yeast Hsp90): 5.9 µM | N (sites) (yeast Hsp90): 0.68 ± 0.01 sites | ΔH (yeast Hsp90): -8.445 ± 0.1642 kcal/mol | ΔS (yeast Hsp90): -3.95 cal/mol/deg
Molecule: Tah1: yeast TPR-domain protein, Hsp90 cochaperone of the R2TP complex

Kd (mouse Pih1-PIH domain): 0.17 µM
Molecule: CC(C)C[C@H](NC(=O)[C@H](CCC(=O)O)NC(=O)[C@H](COP(=O)(O)O)NC(=O)[C@H](CC(=O)O)NC(=O)[C@H](CO)NC(=O)CNC(=O)[C@@H](N)CCC(N)=O)C(=O)N[C@@H](CC(=O)O)C(=O)N[C@@H](COP(=O)(O)O)C(=O)N[C@@H](CC(=O)O)C(=O)N[C@@H](CC(=O)O)C(=O)N[C@@H](CCC(=O)O)C(=O)N[C@@H](Cc1ccccc1)C(=O)O [pS488,pS492-Tel2]

Kd (yeast Hsp90): 4 µM | N (sites) (yeast Hsp90): 0.93 ± 0.04 sites | ΔH (yeast Hsp90): -7.595 ± 0.404 kcal/mol | ΔS (yeast Hsp90): -0.367 cal/mol/deg
Molecule: Tah1-Pih1 complex: pre-assembled full-length yeast Tah1-Pih1 complex
